Values quoted from earlier work as cited in US7906537B2, “Substituted p-diaminobenzene derivatives” (priority 2003, dated 2011).

Tests used:
[1] = system: kainic acid-induced status epilepticus; settings: following kainic acid-induced status epilepticus in the rat
[2] = system: animal models of neuropathic pain; settings: in vivo
epileptic patients = settings: clinical trials
hippocampal kindling = settings: rat
amygdala kindling model = settings: in vivo
[3] = system: animal models of anxiety-like behaviour; settings: in vivo
[4] = system: K(+) current in neuronal cells
[5] = system: electrically induced seizures, seizures induced chemically by pentylenetetrazole, picrotoxin and NMDA, DBA/2 mouse; settings: after oral and intraperitoneal administration in rats and mice
[6] = system: animal models of ethanol withdrawal syndrome; settings: in vivo

CCOC(=O)Nc1ccc(NCc2ccc(F)cc2)cc1N [Retigabine, N-(2-amino-4-(4-fluorobenzylamino)-phenyl)carbamic acid ethyl ester]
limbic neurodegeneration and expression of markers of apoptosis [1]: prevent limbic neurodegeneration and the expression of markers of apoptosis | effect in animal models of neuropathic pain [2]: beneficial | incidence of seizures in epileptic patients (epileptic patients): effectiveness in reducing the incidence of seizures | progression of hippocampal kindling (hippocampal kindling): delay the progression of hippocampal kindling | activity in the amygdala kindling model of complex partial seizures (amygdala kindling model): active | activity in animal models of anxiety-like behaviour [3]: active | activation of K(+) current [4]: activate a K(+) current | activity in a range of anticonvulsant tests [5]: active

NCC1(CC(=O)O)CCCCC1 [gabapentin]
effect in animal models of ethanol withdrawal syndrome [6]: very effective
